Where two headings read alike, the source gives them in different places.
How the values were obtained:
[1] = test system: Wnt pathway (Sp5-Luc reporter, TCF/LEF binding sites) in SW480 colon carcinoma cells; assay: Screening assay for Wnt activity: Sp5-Luc reporter gene assay; type: cell-based, human; settings: Homo sapiens; Sp5-Luc reporter, SW480 cells, 36 to 48 hours;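 further: firefly luciferase luminescence read in stably transduced SW480 cells carrying the Sp5 promoter reporter with eight TCF/LEF sites, compounds given in 0.1% DMSO final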
Experimental: The screening assay for Wnt activity is described as follows.
Following incubation, 15 μl of BriteLite Plus luminescence reagent (Perkin Elmer) was added to each well of the 384-well assay plates. The plates were placed on an orbital shaker for 2 min and then luminescence was quantified using the Envision (Perkin Elmer) plate reader.

[2] = test system: Tau phosphorylation at Ser396 (pSer396); assay: Tau phosphorylation assay (pSer396 ELISA / western blot) in SH-SY5Y cells; type: cell-based, human; settings: Homo sapiens, read-out: pSer396 Tau EC50;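 further: EC50 for reduction of Tau pSer396 in lysed cells, measured by colorimetric ELISA or chemiluminescent western blot, both using the same pSer396 antibody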
[3] = test system: α-smooth muscle actin (αSMA) positive LL29 cells; assay: Inhibition of fibrotic process: αSMA in TGF-β1 treated primary human fibroblasts from IPF patients; type: cell-based; settings: Homo sapiens, Fibroblast; for EC50: 96 h, Table 8, LL29 fibroblasts from IPF patients, TGF-β1 20 ng/mL, 4 days, dose-response 10 μM to 0.94 nM; for inhibition at 10 µM: read-out: percent value in parentheses beside EC50 >10 μM;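 on all read-outs here: controls were TGF-β1 stimulated wells with DMSO vehicle (positive) and cells given DMSO alone (negative), cultured in F12 medium with 1% fetal bovine serum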
[4] = test system: SW480 colon carcinoma cells; assay: Cell viability assay (CellTiter-Glo); type: cell-based, human; settings: Homo sapiens, 96 h; SW480 cells, CellTiter-Glo, four days incubation
recombinant GSK3β kinase = recombinant GSK3β kinase (Homo sapiens (Human), UniProt P49841); assay: GSK3β kinase assay (Ser/Thr 09 peptide Z-lyte FRET); type: biochemical; settings: 46 μM ATP, 1 h room temperature;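 further: kinase activity read as coumarin to fluorescein emission ratio, 11-point threefold dilutions from 10 µM to 0.0003 µM in duplicate, unphosphorylated and phosphorylated peptide as 0% and 100% controls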
IL-6 = IL-6 inhibition in LPS-stimulated human peripheral blood mononuclear cells (HTRF); type: cell-based; settings: Homo sapiens, PBMC; for EC50: Table 9, huPBMCs, LPS 50 ng/mL, 22 hours, dose-response starting from 10 μM; for inhibition at 10 µM: read-out: percent value in parentheses beside EC50 >10 μM;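 on all read-outs here: IL-6 detected by HTRF with an XL665- and Cryptate-labelled anti-IL-6 antibody pair, samples run in duplicate, EC50 obtained from a four-parameter Levenberg-Marquardt curve fit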
Experimental: After 22 hour incubation, a mixture of anti-IL6 XL665 and anti-IL-6 Cryptate diluted in reconstitution buffer (Catalog #62IL6PEC, Cisbio Inc., Bedford, Mass.) was added to each well. […] All samples were processed in duplicate. […] EC50 was determined using software generated by Dotmatics Limited (Windhill Bishops Stortford Herts, UK) using the Levenberg-Marquardt 4 parameter fitting procedure with finite different gradients.

[5] = molecular target: recombinant DYRK1A kinase (Homo sapiens (Human), UniProt Q13627); assay: DYRK1A kinase assay (Ser/Thr 18 peptide Z-lyte FRET); type: biochemical; settings: 30 μM ATP, 1 h room temperature;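 further: Read-out is the coumarin to fluorescein emission ratio, referenced to unphosphorylated (0%) and phosphorylated (100%) Ser/Thr 18 peptide controls, values from dose-response curves by non-linear regression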
[6] = SH-SY5Y cells, overnight (16-18 h) exposure

recombinant GSK3β kinase, sequence (P49841 whole entry): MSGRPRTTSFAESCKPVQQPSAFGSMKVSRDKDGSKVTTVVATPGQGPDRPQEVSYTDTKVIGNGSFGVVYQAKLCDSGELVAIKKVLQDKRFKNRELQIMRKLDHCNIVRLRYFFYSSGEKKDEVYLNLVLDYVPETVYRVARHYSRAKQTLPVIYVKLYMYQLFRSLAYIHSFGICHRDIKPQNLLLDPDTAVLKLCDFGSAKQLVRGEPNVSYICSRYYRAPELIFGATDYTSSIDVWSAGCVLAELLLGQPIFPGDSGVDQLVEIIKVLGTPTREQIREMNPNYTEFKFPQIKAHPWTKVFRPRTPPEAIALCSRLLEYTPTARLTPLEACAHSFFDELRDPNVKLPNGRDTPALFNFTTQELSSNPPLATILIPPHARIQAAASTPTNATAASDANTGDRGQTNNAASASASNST

| Structure (SMILES) | EC50 [1] [nM] | EC50 [2, 6] [nM] | EC50 [3] [nM] | EC50 [4] [nM] | EC50 (recombinant GSK3β kinase) [nM] | EC50 (IL-6) [nM] | EC50 [5] [nM] | EC50 ([2]; SH-SY5Y) [nM] | inhibition at 10 µM (IL-6) [%] | inhibition at 10 µM [3] [%] |
| --- | --- | --- | --- | --- | --- | --- | --- | --- | --- | --- |
| CN1CCC(N2CCC(C(=O)Nc3cc4cc(-c5cnco5)ccc4cn3)CC2)CC1 [Compound 978, 1′-Methyl-N-(6-(oxazol-5-yl)isoquinolin-3-yl)-[1,4′-bipiperidine]-4-carboxamide] | 2220 | 274 | 722 | 1580 | 220 | 3360 | 3.9 | – | – | – |
| O=C(CN1C2CCC1CC2)Nc1cc2cc(-c3cnn4c3CN(CCF)CC4)ccc2cn1 [Compound 1000, 2-(7-Azabicyclo[2.2.1]heptan-7-yl)-N-(6-(5-(2-fluoroethyl)-4,5,6,7-tetrahydropyrazolo[1,5-a]pyrazin-3-yl)isoquinolin-3-yl)acetamide] | 4320 | – | 2960 | 7300 | 270 | 8720 | 11.1 | 1500 | – | – |
| [2H]C([2H])([2H])n1cc(-c2ccc3cnc(NC(=O)CN4CCN(C)CC4)cc3c2)cn1 [Compound 1014, N-(6-(1-(Methyl-d3)-1H-pyrazol-4-yl)isoquinolin-3-yl)-2-(4-methylpiperazin-1-yl)acetamide] | 2360 | 767 | 695 | 5420 | 96 | 3200 | 9.4 | – | – | – |
| CCN(CC)CC(=O)Nc1cc2cc(-c3cnn(C)c3)ccc2cn1 [Compound 303, 2-(Diethylamino)-N-(6-(1-methyl-1H-pyrazol-4-yl)isoquinolin-3-yl) acetamide] | 9830 | 783 | 817 | 7800 | 89 | 5240 | 8 | – | – | – |
| O=C(Nc1cc2cc(-c3cnc4n3CCNC4)ccc2cn1)C1CC(F)(F)C1 [Compound 986, 3,3-Difluoro-N-(6-(5,6,7,8-tetrahydroimidazo[1,2-a]pyrazin-3-yl)isoquinolin-3-yl)cyclobutane-1-carboxamide] | 1380 | 387 | 158 | 3300 | 21 | > 10000 | 11 | – | 13.4 | – |
| Cn1cncc1-c1ccc2cnc(NC(=O)C3(F)CC3)cc2c1 [Compound 521, 1-Fluoro-N-(6-(1-methyl-1H-imidazol-5-yl)isoquinolin-3-yl)cyclopropane-1-carboxamide] | 1800 | 1100 | 1990 | 3630 | 234 | 3250 | 1.6 | – | – | – |
| Cn1cc(-c2ccc3cnc(NC(=O)C4CCN(CC5(C)COC5)CC4)cc3c2)cn1 [Compound 87, N-(6-(1-Methyl-1H-pyrazol-4-yl)isoquinolin-3-yl)-1-((3-methyloxetan-3-yl)methyl)piperidine-4-carboxamide] | 1000 | 414 | 81 | 3160 | 32 | 2940 | 3.3 | – | – | – |
| Cn1cc(-c2ccc3cnc(NC(=O)C4CCN(CC5(C(F)(F)F)CC5)CC4)cc3c2)cn1 [Compound 310, N-(6-(1-Methyl-1H-pyrazol-4-yl)isoquinolin-3-yl)-1-((1-(trifluoromethyl)cyclopropyl)methyl)piperidine-4-carboxamide] | 1460 | 628 | 294 | 5350 | 105 | 1170 | 6.2 | – | – | – |
| O=C(Nc1cc2cc(-c3cnco3)ccc2cn1)C1CCN(C(=O)CN2CCCC2)CC1 [Compound 977, N-(6-(Oxazol-5-yl)isoquinolin-3-yl)-1-(2-(pyrrolidin-1-yl)acetyl)piperidine-4-carboxamide] | 875 | 426 | 136 | 615 | 246 | 404 | 3.2 | – | – | – |
| O=C(Nc1cc2cc(-c3cncs3)ccc2cn1)C1CCN(C(=O)CN2CCCC2)CC1 [Compound 741, 1-(2-(Pyrrolidin-1-yl)acetyl)-N-(6-(thiazol-5-yl)isoquinolin-3-yl)piperidine-4-carboxamide] | 444 | 528 | 175 | 462 | 107 | 380 | 0.9 | – | – | – |
| Cn1ncc(-c2ccc3cnc(NC(=O)[C@H]4CCCN4)cc3c2)c1CN1CCCCC1 [Compound 803, (R)—N-(6-(1-Methyl-5-(piperidin-1-ylmethyl)-1H-pyrazol-4-yl)isoquinolin-3-yl)pyrrolidine-2-carboxamide] | 3550 | 3700 | > 10000 | 4530 | 164 | 3320 | 12.6 | – | – | 27.8 |
| Cc1nnc(-c2ccc3cnc(NC(=O)CN4CCOCC4)cc3c2)s1 [Compound 952, N-(6-(5-Methyl-1,3,4-thiadiazol-2-yl)isoquinolin-3-yl)-2-morpholinoacetamide] | 1470 | 269 | 741 | 7090 | 8 | > 10000 | 7.2 | – | 10.1 | – |
| CC(C)CN1CCC(C(=O)Nc2cc3cc(-c4cncn4C)ccc3cn2)CC1 [Compound 554, 1-Isobutyl-N-(6-(1-methyl-1H-imidazol-5-yl)isoquinolin-3-yl)piperidine-4-carboxamide] | 272 | 95 | 190 | 366 | 38 | 439 | 1.4 | – | – | – |
| Cn1cc(-c2ccc3cnc(NC(=O)C4CC5(C4)CN(CCF)C5)cc3c2)cn1 [Compound 326, 2-(2-Fluoroethyl)-N-(6-(1-methyl-1H-pyrazol-4-yl)isoquinolin-3-yl)-2-azaspiro[3.3]heptane-6-carboxamide] | 438 | 574 | > 10000 | 400 | 19 | 380 | 2.9 | – | – | 47.2 |
| Cn1cc(-c2ccc3cnc(NC(=O)C4CCN(Cc5ccccc5)CC4)cc3c2)cn1 [Compound 335, 1-Benzyl-N-(6-(1-methyl-1H-pyrazol-4-yl)isoquinolin-3-yl)piperidine-4-carboxamide] | 993 | 289 | 111 | 1120 | 71 | 401 | 3.8 | – | – | – |
| Cn1cc(-c2ccc3cnc(NC(=O)C4CCN(S(=O)(=O)c5ccccc5)CC4)cc3c2)cn1 [Compound 964, N-(6-(1-Methyl-1H-pyrazol-4-yl)isoquinolin-3-yl)-1-(phenylsulfonyl) piperidine-4-carboxamide] | 1450 | 576 | > 10000 | 3830 | 102 | > 10000 | 5.2 | – | 6.8 | 19.7 |
| Cc1nc(CN2CCC(C(=O)Nc3cc4cc(-c5cnn(C)c5)ccc4cn3)CC2)no1 [Compound 1005, 1-((5-Methyl-1,2,4-oxadiazol-3-yl)methyl)-N-(6-(1-methyl-1H-pyrazol-4-yl)isoquinolin-3-yl)piperidine-4-carboxamide] | 1400 | 898 | 72 | 1130 | 32 | 2890 | 1.5 | – | – | – |
| Cn1cc(-c2ccc3cnc(NC(=O)C4CCN(CC(=O)OC(C)(C)C)CC4)cc3c2)cn1 [Compound 1010, tert-Butyl 2-(4-((6-(1-methyl-1H-pyrazol-4-yl)isoquinolin-3-yl)carbamoyl)piperidin-1-yl)acetate] | 2020 | 622 | 103 | 3960 | 53 | 1170 | 2.6 | – | – | – |
| Cn1cc(-c2ccc3cnc(NC(=O)CN4CCC(F)CC4)cc3c2)cn1 [Compound 116, 2-(4-Fluoropiperidin-1-yl)-N-(6-(1-methyl-1H-pyrazol-4-yl)isoquinolin-3-yl)acetamide] | 7100 | 870 | 830 | 6500 | 24 | 1330 | 4.3 | – | – | – |
| Cn1cc(-c2ccc3cnc(NC(=O)CN4CCN(C5CC5)CC4)cc3c2)cn1 [Compound 353, 2-(4-Cyclopropylpiperazin-1-yl)-N-(6-(1-methyl-1H-pyrazol-4-yl)isoquinolin-3-yl)acetamide] | 5710 | 724 | > 10000 | 8220 | 29 | > 10000 | 8.6 | – | 39.9 | 31.7 |
| COCCN1CCC(C(=O)Nc2cc3cc(-c4cncn4C)ccc3cn2)CC1 [Compound 547, 1-(2-Methoxyethyl)-N-(6-(1-methyl-1H-imidazol-5-yl)isoquinolin-3-yl) piperidine-4-carboxamide] | 2230 | 379 | 160 | 931 | 104 | 1120 | 3.4 | – | – | – |
